Data as given in ChEMBL document CHEMBL5463729, “Data for DCP probe BAY 1753011” (2023).

Legend:
[1] = molecular target: T1, Vasopressin V1b receptor (Homo sapiens) (UniProt P47901); assay: Inhibition of Vasopressin V1B at 10 µM in the Eurofins-Panlabs radioligand binding assay (Eurofins_assay_287560); design: ligand concentration 1 nM
T1 sequence (whole entry): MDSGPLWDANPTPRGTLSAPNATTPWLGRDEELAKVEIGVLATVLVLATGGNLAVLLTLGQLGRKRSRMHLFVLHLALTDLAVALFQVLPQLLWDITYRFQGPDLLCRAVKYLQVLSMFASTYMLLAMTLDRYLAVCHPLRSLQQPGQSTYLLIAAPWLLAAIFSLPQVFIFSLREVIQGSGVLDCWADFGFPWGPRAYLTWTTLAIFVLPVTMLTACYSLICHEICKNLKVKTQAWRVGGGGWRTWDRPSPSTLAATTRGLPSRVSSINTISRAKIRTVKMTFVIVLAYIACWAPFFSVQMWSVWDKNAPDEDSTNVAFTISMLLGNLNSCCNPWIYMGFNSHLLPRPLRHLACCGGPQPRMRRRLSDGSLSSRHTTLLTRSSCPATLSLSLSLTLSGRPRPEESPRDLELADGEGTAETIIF

[2] = molecular target: Vasopressin V1b receptor (Homo sapiens, UniProt P47901); assay: Radiometric AVPR1B binding assay (Eurofins #287560)
[3] = molecular target: Activin receptor type-1-like (Homo sapiens) (UniProt P37023); assay: Inhibition of ALK1(h) at 10.0 µM in the Eurofins Kinase panel; details: Compound concentration 10.0 uM
[4] = molecular target: Calcium/calmodulin-dependent protein kinase type II subunit beta (Homo sapiens) (UniProt Q13554); assay: Inhibition of CaMKIIbeta(h) at 10.0 µM in the Eurofins Kinase panel; details: Compound concentration 10.0 uM
[5] = molecular target: Calcium/calmodulin-dependent protein kinase kinase 1 (Homo sapiens) (UniProt Q8N5S9); assay: Inhibition of CaMKK1(h) at 10.0 µM in the Eurofins Kinase panel; details: Compound concentration 10.0 uM
[6] = molecular target: CDK18/Cyclin Y (Homo sapiens) (UniProt Q07002+Q8ND76); assay: Inhibition of CDK18/cyclinY(h) at 10.0 µM in the Eurofins Kinase panel; format: protein-complex assay; details: Compound concentration 10.0 uM
[7] = molecular target: Cyclin-dependent kinase-like 1 (Homo sapiens) (UniProt Q00532); assay: Inhibition of CDKL1(h) at 10.0 µM in the Eurofins Kinase panel; details: Compound concentration 10.0 uM
[8] = molecular target: Cyclin-dependent kinase-like 4 (Homo sapiens) (UniProt Q5MAI5); assay: Inhibition of CDKL4(h) at 10.0 µM in the Eurofins Kinase panel; details: Compound concentration 10.0 uM
[9] = molecular target: Serine/threonine-protein kinase Chk1 (Homo sapiens) (UniProt O14757); assay: Inhibition of CHK1(h) at 10.0 µM in the Eurofins Kinase panel; details: Compound concentration 10.0 uM
[10] = molecular target: Tyrosine-protein kinase CSK (Homo sapiens) (UniProt P41240); assay: Inhibition of CSK(h) at 10.0 µM in the Eurofins Kinase panel; details: Compound concentration 10.0 uM
[11] = molecular target: Serine/threonine-protein kinase 17A (Homo sapiens) (UniProt Q9UEE5); assay: Inhibition of DRAK1(h) at 10.0 µM in the Eurofins Kinase panel; details: Compound concentration 10.0 uM
[12] = molecular target: Ephrin type-B receptor 3 (Homo sapiens) (UniProt P54753); assay: Inhibition of EphB3(h) at 10.0 µM in the Eurofins Kinase panel; details: Compound concentration 10.0 uM
[13] = molecular target: Receptor-type tyrosine-protein kinase FLT3 (Homo sapiens) (UniProt P36888); assay: Inhibition of Flt3(h) at 10.0 µM in the Eurofins Kinase panel; details: Compound concentration 10.0 uM
[14] = molecular target: Homeodomain-interacting protein kinase 2 (Homo sapiens) (UniProt Q9H2X6); assay: Inhibition of HIPK2(h) at 10.0 µM in the Eurofins Kinase panel; details: Compound concentration 10.0 uM
[15] = molecular target: Serine/threonine-protein kinase LATS2 (Homo sapiens) (UniProt Q9NRM7); assay: Inhibition of LATS2(h) at 10.0 µM in the Eurofins Kinase panel; details: Compound concentration 10.0 uM
[16] = molecular target: Leukocyte tyrosine kinase receptor (Homo sapiens) (UniProt P29376); assay: Inhibition of LTK(h) at 10.0 µM in the Eurofins Kinase panel; details: Compound concentration 10.0 uM
[17] = molecular target: Tyrosine-protein kinase Mer (Homo sapiens) (UniProt Q12866); assay: Inhibition of Mer(h) at 10.0 µM in the Eurofins Kinase panel; details: Compound concentration 10.0 uM
[18] = molecular target: Serine/threonine-protein kinase MRCK beta (Homo sapiens) (UniProt Q9Y5S2); assay: Inhibition of MRCKbeta(h) at 10.0 µM in the Eurofins Kinase panel; details: Compound concentration 10.0 uM
[19] = molecular target: Protein kinase C beta type (Homo sapiens) (UniProt P05771); assay: Inhibition of PKCbetaII(h) at 10.0 µM in the Eurofins Kinase panel; details: Compound concentration 10.0 uM
[20] = molecular target: Serine/threonine-protein kinase PLK4 (Homo sapiens) (UniProt O00444); assay: Inhibition of Plk4(h) at 10.0 µM in the Eurofins Kinase panel; details: Compound concentration 10.0 uM
[21] = molecular target: Ribosomal protein S6 kinase alpha-2 (Homo sapiens) (UniProt Q15349); assay: Inhibition of Rsk3(h) at 10.0 µM in the Eurofins Kinase panel; details: Compound concentration 10.0 uM
[22] = molecular target: NT-3 growth factor receptor (Homo sapiens) (UniProt Q16288); assay: Inhibition of TrkC(h) at 10.0 µM in the Eurofins Kinase panel; details: Compound concentration 10.0 uM
[23] = molecular target: Testis-specific serine/threonine-protein kinase 3 (Homo sapiens) (UniProt Q96PN8); assay: Inhibition of TSSK3(h) at 10.0 µM in the Eurofins Kinase panel; details: Compound concentration 10.0 uM
[24] = molecular target: 5-hydroxytryptamine receptor 2A (Homo sapiens) (UniProt P28223); details: Compound concentration 10.0 uM
[25] = molecular target: Histamine H1 receptor (Homo sapiens) (UniProt P35367); details: Compound concentration 10.0 uM
[26] = molecular target: T2, Alpha-2C adrenergic receptor (Homo sapiens) (UniProt P18825); details: Compound concentration 10.0 uM
T2 sequence (whole entry): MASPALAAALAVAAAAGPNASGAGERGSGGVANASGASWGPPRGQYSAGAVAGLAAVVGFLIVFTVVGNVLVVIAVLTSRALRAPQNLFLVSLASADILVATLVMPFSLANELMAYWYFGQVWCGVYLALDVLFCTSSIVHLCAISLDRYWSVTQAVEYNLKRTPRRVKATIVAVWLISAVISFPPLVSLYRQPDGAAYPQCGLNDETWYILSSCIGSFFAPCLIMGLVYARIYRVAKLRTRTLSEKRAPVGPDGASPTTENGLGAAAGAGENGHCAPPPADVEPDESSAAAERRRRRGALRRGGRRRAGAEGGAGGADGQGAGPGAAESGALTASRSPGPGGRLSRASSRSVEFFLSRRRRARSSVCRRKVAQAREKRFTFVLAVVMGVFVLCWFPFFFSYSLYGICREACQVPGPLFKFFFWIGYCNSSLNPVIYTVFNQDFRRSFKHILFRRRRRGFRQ

[27] = molecular target: Adenosine receptor A2a (Homo sapiens) (UniProt P29274); details: Compound concentration 10.0 uM
[28] = molecular target: Estrogen receptor (Homo sapiens) (UniProt P03372); details: Compound concentration 10.0 uM
[29] = molecular target: D(2) dopamine receptor (Homo sapiens) (UniProt P14416); details: Compound concentration 10.0 uM

Chain of 5-hydroxytryptamine receptor 2A (Homo sapiens) (P28223 whole entry): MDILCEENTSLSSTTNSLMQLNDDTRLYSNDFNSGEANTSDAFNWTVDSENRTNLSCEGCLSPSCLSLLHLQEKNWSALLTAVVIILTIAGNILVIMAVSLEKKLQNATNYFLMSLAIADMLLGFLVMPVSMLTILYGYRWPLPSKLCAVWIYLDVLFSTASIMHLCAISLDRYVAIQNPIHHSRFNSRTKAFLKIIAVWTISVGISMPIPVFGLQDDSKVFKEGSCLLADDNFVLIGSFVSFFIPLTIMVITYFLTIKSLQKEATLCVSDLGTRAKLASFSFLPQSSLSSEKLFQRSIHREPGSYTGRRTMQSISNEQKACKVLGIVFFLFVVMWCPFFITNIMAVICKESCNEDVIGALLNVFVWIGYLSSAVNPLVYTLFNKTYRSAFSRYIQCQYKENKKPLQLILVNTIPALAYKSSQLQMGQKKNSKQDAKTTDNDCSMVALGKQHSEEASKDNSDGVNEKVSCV
Chain of Histamine H1 receptor (Homo sapiens) (P35367 whole entry): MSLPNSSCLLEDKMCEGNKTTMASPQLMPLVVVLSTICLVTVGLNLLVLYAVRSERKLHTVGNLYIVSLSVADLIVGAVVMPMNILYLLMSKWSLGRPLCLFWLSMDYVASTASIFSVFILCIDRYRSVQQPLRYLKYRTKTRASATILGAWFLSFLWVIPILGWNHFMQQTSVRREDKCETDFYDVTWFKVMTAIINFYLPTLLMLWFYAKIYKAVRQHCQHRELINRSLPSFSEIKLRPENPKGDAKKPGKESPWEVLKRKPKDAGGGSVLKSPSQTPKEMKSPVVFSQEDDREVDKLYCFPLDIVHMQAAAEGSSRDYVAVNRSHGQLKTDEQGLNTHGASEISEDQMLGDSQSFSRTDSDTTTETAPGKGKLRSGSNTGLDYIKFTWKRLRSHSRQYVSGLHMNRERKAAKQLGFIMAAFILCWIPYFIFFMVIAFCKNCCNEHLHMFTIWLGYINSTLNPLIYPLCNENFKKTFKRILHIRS
Chain of Ephrin type-B receptor 3 (Homo sapiens) (P54753 whole entry): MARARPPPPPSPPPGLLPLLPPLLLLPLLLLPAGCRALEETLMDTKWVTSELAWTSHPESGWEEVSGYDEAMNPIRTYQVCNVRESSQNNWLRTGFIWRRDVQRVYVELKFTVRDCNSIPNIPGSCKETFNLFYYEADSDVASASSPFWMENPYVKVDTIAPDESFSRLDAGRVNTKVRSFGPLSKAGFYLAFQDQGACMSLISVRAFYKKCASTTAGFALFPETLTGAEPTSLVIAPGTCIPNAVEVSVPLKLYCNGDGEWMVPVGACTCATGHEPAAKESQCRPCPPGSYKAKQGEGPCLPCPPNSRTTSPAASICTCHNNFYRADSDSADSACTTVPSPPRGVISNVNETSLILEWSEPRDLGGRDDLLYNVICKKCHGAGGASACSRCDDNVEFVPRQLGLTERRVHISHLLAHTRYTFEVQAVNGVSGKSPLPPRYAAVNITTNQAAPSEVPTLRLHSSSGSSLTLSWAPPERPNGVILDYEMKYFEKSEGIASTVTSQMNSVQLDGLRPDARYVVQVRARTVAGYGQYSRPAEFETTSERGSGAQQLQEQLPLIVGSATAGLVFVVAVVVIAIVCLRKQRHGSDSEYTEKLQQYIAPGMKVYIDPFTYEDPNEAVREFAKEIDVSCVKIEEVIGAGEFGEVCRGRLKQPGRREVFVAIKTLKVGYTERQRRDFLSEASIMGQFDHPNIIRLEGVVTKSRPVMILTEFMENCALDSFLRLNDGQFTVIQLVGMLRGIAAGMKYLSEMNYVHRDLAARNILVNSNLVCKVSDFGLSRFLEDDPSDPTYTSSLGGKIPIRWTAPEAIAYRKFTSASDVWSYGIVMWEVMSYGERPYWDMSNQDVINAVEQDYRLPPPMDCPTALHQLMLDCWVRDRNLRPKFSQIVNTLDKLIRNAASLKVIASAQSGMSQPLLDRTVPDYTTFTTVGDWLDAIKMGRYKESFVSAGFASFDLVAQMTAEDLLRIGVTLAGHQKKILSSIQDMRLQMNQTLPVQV
Chain of Estrogen receptor (Homo sapiens) (P03372 whole entry): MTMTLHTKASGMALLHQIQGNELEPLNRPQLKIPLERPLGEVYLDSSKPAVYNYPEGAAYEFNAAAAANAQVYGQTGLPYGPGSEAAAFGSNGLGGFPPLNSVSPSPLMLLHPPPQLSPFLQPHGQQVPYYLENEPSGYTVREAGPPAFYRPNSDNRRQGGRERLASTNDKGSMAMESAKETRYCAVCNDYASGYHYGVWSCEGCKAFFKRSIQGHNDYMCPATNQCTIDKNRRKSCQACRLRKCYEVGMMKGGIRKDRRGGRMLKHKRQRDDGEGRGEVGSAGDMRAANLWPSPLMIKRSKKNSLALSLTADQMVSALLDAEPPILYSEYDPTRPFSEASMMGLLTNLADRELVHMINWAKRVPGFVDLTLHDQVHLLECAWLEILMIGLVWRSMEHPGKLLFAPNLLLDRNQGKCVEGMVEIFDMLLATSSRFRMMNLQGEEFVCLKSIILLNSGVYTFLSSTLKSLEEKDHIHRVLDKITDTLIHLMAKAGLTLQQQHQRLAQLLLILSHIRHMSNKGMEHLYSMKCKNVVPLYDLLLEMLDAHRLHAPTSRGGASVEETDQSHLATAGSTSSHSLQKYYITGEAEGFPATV
Chain of Serine/threonine-protein kinase Chk1 (Homo sapiens) (O14757 whole entry): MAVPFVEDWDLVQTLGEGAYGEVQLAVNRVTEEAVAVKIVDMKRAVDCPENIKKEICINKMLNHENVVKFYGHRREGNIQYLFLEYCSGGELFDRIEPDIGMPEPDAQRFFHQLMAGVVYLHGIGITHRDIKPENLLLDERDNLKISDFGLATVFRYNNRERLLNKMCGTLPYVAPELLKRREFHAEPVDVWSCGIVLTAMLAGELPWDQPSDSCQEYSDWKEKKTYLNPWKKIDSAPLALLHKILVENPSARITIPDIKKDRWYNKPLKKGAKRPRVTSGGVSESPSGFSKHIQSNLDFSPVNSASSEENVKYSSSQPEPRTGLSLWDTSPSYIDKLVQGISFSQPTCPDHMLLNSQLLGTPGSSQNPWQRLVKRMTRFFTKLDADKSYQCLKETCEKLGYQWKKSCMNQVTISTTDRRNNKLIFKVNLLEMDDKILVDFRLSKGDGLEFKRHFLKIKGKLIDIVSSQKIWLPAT
Chain of Testis-specific serine/threonine-protein kinase 3 (Homo sapiens) (Q96PN8 whole entry): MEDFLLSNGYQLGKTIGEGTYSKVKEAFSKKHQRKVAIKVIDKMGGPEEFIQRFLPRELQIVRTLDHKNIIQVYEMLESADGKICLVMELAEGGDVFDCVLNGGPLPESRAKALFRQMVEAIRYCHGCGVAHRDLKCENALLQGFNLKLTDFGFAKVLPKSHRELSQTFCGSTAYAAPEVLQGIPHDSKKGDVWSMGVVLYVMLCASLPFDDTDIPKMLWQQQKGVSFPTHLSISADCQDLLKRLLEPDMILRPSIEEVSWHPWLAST
Chain of Cyclin-dependent kinase-like 1 (Homo sapiens) (Q00532 whole entry): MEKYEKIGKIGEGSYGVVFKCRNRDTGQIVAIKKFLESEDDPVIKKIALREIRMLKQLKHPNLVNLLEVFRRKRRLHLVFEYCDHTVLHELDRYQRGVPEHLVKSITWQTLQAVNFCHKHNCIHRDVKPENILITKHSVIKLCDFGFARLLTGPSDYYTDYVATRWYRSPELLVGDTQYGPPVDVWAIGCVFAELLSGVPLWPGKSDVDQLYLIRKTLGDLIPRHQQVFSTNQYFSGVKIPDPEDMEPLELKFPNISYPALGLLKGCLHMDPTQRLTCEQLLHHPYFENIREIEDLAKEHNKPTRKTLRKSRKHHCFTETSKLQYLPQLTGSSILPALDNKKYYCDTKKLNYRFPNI
Chain of Ribosomal protein S6 kinase alpha-2 (Homo sapiens) (Q15349 whole entry): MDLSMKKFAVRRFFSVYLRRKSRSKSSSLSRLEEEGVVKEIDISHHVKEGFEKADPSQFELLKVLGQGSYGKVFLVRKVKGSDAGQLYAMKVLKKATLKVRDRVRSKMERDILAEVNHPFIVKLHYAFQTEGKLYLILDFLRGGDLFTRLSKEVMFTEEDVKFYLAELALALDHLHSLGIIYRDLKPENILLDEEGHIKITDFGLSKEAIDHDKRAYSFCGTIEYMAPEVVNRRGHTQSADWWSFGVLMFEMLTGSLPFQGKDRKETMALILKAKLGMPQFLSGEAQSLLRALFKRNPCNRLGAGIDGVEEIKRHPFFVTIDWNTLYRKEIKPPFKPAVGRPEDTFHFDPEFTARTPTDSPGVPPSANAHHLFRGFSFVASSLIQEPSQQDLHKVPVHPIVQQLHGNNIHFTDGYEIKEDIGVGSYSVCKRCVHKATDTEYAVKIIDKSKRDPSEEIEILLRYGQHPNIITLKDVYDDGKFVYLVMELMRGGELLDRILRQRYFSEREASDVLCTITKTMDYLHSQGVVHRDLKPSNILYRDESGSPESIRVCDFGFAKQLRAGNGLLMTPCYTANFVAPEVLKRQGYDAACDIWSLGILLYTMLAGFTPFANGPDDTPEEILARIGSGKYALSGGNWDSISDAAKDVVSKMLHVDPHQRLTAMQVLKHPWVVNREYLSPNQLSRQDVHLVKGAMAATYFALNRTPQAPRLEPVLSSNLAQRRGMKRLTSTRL
Chain of Calcium/calmodulin-dependent protein kinase kinase 1 (Homo sapiens) (Q8N5S9 whole entry, looked up): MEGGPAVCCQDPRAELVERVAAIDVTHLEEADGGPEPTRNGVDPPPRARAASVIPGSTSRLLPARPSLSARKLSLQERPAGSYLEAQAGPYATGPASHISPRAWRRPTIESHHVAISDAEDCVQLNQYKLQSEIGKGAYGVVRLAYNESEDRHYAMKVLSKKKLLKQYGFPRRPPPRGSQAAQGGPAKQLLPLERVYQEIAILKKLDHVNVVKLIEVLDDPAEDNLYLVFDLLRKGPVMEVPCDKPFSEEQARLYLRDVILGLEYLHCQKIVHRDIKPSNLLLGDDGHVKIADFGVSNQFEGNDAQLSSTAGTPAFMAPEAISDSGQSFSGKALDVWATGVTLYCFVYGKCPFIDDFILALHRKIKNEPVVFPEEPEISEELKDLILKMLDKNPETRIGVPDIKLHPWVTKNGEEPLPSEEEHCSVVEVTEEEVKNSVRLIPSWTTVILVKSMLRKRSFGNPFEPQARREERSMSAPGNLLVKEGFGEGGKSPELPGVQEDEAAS

Row | SMILES | inhibition ([1]; Compound concentration 10.0 uM) [%] | Ki [2] | inhibition [3] [%] | inhibition [4] [%] | inhibition [5] [%] | inhibition [6] [%] | inhibition [7] [%] | inhibition [8] [%] | inhibition [9] [%] | inhibition [10] [%] | inhibition [11] [%] | inhibition [12] [%] | inhibition [13] [%] | inhibition [14] [%] | inhibition [15] [%] | inhibition [16] [%] | inhibition [17] [%] | inhibition [18] [%] | inhibition [19] [%] | inhibition [20] [%] | other results
1 | O=c1n(Cc2cncn2-c2cccc(Cl)c2)nc(-c2ccc(Cl)cc2)n1C[C@H](O)C(F)(F)F | 7 | > 10 µM (not active) | -1.34 | -8.58 | 1.19 | -1.75 | 6.34 | -1.89 | 1.73 | -8.53 | -1.37 | 7.39 | -4.56 | -9.36 | 5.08 | 5.77 | -6.11 | -6.31 | 4.87 | 10.6 | inhibition [21]: -0.87%; inhibition [22]: 0.07%; inhibition [23]: -6.06%; inhibition [24]: -2.02%; inhibition [25]: 28.5%; inhibition [26]: -9.85%; inhibition [27]: 1%; inhibition [28]: 4%; inhibition [29]: 16%
2 | C[C@H](O)c1nc(Cn2nc(-c3ccc(Cl)cc3)n(C[C@H](O)C(F)(F)F)c2=O)nn1-c1cccc(Cl)c1 [PECAVAPTAN] | 43 | > 10 µM (not active) | -9.71 | -0.27 | -5.02 | 2.34 | 1.83 | 5.63 | 2.42 | -8.59 | -9.63 | 1.81 | 0.7 | -6.27 | 3.15 | 4.2 | -0.91 | -2.21 | 2.9 | -5.71 | inhibition ([1]; Compound concentration 0.001 uM): 6%; inhibition ([1]; Compound concentration 0.01 uM): -6%; inhibition ([1]; Compound concentration 0.1 uM): -5%; inhibition ([1]; Compound concentration 1.0 uM): 5%; inhibition [21]: 9.71%; inhibition [22]: -6.4%; inhibition [23]: -7.5%; inhibition [24]: 0.62%; inhibition [25]: 12%; inhibition [26]: -2.74%; inhibition [27]: 4%; inhibition [28]: 8%; inhibition [29]: 14%
